Data from US8927024B1, “Antimicrobial polyanhydride nanoparticles” (priority 2009, dated 2015).
Where “and” joins values, the source holds several entries; their conditions need not be identical. Equal values may be shown once. Read-outs that look alike come from different tables or passages of the source.

How the values were obtained:
Brucella melitensis 16M = conditions: in vivo; cited from earlier work
[1] = tested on: Mycobacterium avium subsp. paratuberculosis (MAP); experiment: Viability of MAP in broth culture (% live MAP by flow); conditions: for viability at 1.25 µg/mL / viability at 10 µg/mL: Mycobacterium avium, read-out: % live MAP (viability of MAP in broth)

Compound | Log CFU/spleen (Brucella melitensis 16M) [Log CFU/spleen] | Reduction (log) (Brucella melitensis 16M) | Spleen wt (Brucella melitensis 16M) | antimicrobial activity in MAP cultures ([1]; FIG. 15, 10 μg/mL amikacin) | viability at 1.25 µg/mL ([1]; 24 h) [%] | viability at 10 µg/mL ([1]; 24 h) [%] | viability at 1.25 µg/mL ([1]; 48 h) [%] | viability at 10 µg/mL ([1]; 48 h) [%]
gentamicin [Free GEN] | 6.77 ± 0.12 | 0.08 log and 0.04 log | 0.86 ± 0.05 g and 0.83 ± 0.26 g | – | – | – | – | –
NCC[C@H](O)C(=O)N[C@@H]1C[C@H](N)[C@@H](O[C@H]2O[C@H](CN)[C@@H](O)[C@H](O)[C@H]2O)[C@H](O)[C@H]1O[C@H]1O[C@H](CO)[C@@H](O)[C@H](N)[C@H]1O [Soluble, amikacin] | – | – | – | minimal antimicrobial activity | 93.8 | 90.1 | 88.4 | 84.8
